Test results from US11622961B2, “Combination therapies for treating cancer” (TESARO, INC., priority 2017, dated 2023).

How the values were obtained:
[1] = system: MDA-MB436 breast carcinoma cell line; test: MDA-MB436 HuNOG-EXL mice treated with niraparib and BLZ945: tumor volume; assay type: in vivo; conditions: 200 mg/kg BLZ945 5 day on and 2 day off plus 80 mg/kg niraparib tosylate once daily, oral; FIG. 6A, 6B (day 26)
Procedure: This example describes the effects of treatment with an agent that inhibits PARP together with an agent that regulates activity in the tumor microenvironment in a mouse model of breast cancer. HuNOG-EXL mice inoculated with MDA-MB436 breast carcinoma cell line were orally administered: i) 80 mg/kg of niraparib tosylate once daily; ii) 200 mg/kg BLZ945 (an anti-CSF-1R that binds to CSF1R and inhibits CSF1R-mediated signal transduction pathways in tumor associated macrophages) on a 5 day on and 2 day off schedule; or iii) 80 mg/kg of niraparib tosylate and 200 mg/kg BLZ945 with the same dosing schedule as the single agent groups. Control mice were administered an isotype control antibody twice weekly via intraperitoneal injection.
Tumor volumes were recorded twice in a week with a gap of 2-3 days in between two measurements until tumor volume reached 600-1000 mm^3 in the control mice.

[2] = crystalline solid; cited from earlier work
[3] = system: primary Murine skin cancer model mSK6005; conditions: 50 mg/kg orally once daily for 21 days, compared to vehicle treated mice
Procedure: This example describes the effects of treatment with an agent that inhibits PARP signaling on tumor microenvironment in a mouse model of colorectal cancer. 50 mg/kg of niraparib or vehicle (0.5% methylcellulose) was orally administered once daily for 21 days to C57BL/6 mice inoculated with primary Murine skin cancer model mSK6005 fragment developed from Apc^Min/J heterozygous background. Formalin-fixed, paraffin-embedded (FFPE) blocks were prepared from tumor samples collected from the mice. Immunohistochemistry (IHC) staining was performed on FFPE samples to assess expression of various markers for immune response in the tumor samples. Five fields in each staining, without necrosis, were randomly selected and imaged at 20× magnification.
All the images were analyzed with Image J software. For CD4, CD8, and FoxP3 IHC, positive cells were counted and the average of 5 fields positive cell numbers was taken as the score value of each case. For Iba1 IHC, the percentage of Iba1 positive expression area or mean gray was measured and taken as the score value of each case. The percentages of tumor cells at different intensity levels were evaluated according to the calculation below. Total Score=(% at 0)×0+(% at 1)×1+(% at 2)×2+(% at 3)×3

MDA-MB-436 = system: MDA-MB-436
Excerpt: FIG. 5A depicts percentage of Ki67-positive CD4 and CD8 positive cells among total CD3 population in control or niraparib treated mice as assessed by flow cytometry.
FIG. 5B depicts tumor volume in MDA-MB-436 huNOG-EXL mice treated with niraparib or control.

CTLA-4 = biological target: T1, CTLA-4 (Homo sapiens, UniProt P16410); conditions: biopsy samples taken after tremelimumab treatment; cited from earlier work
T1 construct: host or cells: metastatic melanoma patients (endogenous CTLA-4)
T1 sequence (P16410 36-223): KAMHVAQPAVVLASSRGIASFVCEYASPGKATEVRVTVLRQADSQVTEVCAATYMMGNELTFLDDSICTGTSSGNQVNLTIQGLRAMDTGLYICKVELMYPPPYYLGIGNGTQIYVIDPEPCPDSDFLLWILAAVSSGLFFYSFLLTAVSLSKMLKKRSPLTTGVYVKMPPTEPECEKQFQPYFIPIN

Compound: CNC(=O)c1cc(Oc2ccc3nc(N[C@@H]4CCCC[C@H]4O)sc3c2)ccn1 [BLZ945]
- anti-tumor activity of the combination (tumor volume) [1]: enhances anti-tumor activity of niraparib

Compound: Cc1ccc(S(=O)(=O)O)cc1.NC(=O)c1cccc2cn(-c3ccc([C@@H]4CCCNC4)cc3)nc12.O [Niraparib tosylate monohydrate, (3 S)-3-[4-{7-(aminocarbonyl)-2H-indazol-2-yl}phenyl]piperidine tosylate monohydrate]
- hygroscopicity of drug substance [2]: non-hygroscopic

Compound: NC(=O)c1cccc2cn(-c3ccc([C@@H]4CCCNC4)cc3)nc12 [niraparib, (3S)-3-[4-{7-(aminocarbonyl)-2H-indazol-2-yl}phenyl]piperidine]
- expression of CD4 in tumor samples (IHC) [3]: Increased expression
- expression of CD8 in tumor samples (IHC) [3]: Increased expression
- expression of FoxP3 in tumor samples (IHC) [3]: Increased expression
- expression of Iba1 in tumor samples (IHC) [3]: Increased expression
- tumor growth (MDA-MB-436; 35 mg/kg QD×5/week (FIG. 5B)): reduction of tumor growth
- percentage of CD8+ cells (MDA-MB-436; 35 mg/kg QD×5/week, flow cytometry (FIG. 5A)): increased percentage of CD8+ cells

Compound: tremelimumab: anti-CTLA-4 antibody
- intratumoral infiltration by CD8+ cells (CTLA-4): highly significant increase
